The values that follow come from US20140011799A1 (Bristol-Myers Squibb Company, priority 2012, published 2014).

Where two headings read alike, the source gives them in different places.

For one experiment, the target named is T1, Endothelial lipase (EL) (Homo sapiens, UniProt Q9Y5X9).
T1 construct: HT-1080 cells that were transformed using RAGE technology (Athersys) to overexpress endogenous EL; endogenous in cells; conditioned medium used
T1 sequence (Q9Y5X9 21-500): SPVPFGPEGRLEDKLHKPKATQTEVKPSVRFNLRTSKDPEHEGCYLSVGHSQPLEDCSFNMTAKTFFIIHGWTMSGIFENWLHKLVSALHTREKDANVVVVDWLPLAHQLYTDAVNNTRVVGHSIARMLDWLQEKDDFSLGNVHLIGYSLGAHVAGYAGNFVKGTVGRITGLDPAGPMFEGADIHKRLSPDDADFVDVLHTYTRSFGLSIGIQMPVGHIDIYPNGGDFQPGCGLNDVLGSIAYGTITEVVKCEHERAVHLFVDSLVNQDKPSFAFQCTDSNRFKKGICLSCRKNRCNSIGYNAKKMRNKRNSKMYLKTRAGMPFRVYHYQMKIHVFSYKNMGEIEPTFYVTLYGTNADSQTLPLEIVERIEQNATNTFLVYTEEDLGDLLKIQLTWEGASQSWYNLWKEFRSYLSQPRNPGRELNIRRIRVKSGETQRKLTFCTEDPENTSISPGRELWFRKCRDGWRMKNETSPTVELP
Kind of experiment: Endothelial lipase (EL) enzymatic assay, fluorescent substrate A10070 in DMPG vesicles. The experiment is classed as biochemical. Particulars: compound preincubated 30 min at 37° C. Summed up: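 Substrate A10070 sits in sonicated DMPG vesicles at 0.11 mole fraction. Lipase and compound preincubated 30 min, 37° C, in HEPES pH 8.0 buffer with CaCl2.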

A further experiment has as its target T2, hepatic lipase (HL) (Homo sapiens, UniProt P11150).
T2 construct: made in house; host or cells: COS cells (conditioned medium, partially purified)
T2 sequence (P11150 23-499): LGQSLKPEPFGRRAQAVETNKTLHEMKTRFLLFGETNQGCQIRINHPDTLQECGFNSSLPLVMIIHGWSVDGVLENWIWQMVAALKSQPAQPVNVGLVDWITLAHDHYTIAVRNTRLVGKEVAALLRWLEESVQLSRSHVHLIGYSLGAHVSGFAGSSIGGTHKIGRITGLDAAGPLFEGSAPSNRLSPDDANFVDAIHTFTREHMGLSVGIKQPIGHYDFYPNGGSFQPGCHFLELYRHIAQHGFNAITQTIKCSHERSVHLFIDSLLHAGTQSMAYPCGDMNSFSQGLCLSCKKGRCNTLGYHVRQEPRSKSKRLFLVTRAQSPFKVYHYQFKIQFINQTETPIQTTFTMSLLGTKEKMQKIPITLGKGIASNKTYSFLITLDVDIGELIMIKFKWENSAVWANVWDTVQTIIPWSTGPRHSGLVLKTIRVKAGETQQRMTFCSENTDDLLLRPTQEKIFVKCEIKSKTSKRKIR
The experiment can be described thus: Hepatic lipase (HL) enzymatic assay, fluorescent substrate A10070 in DMPG vesicles. The experiment is classed as biochemical. Particulars: compound preincubated 30 min at 37° C. How it is done: Endothelial lipase (EL) and hepatic lipase (HL) activities were measured using a fluorescent substrate, A10070, (Invitrogen, CA) doped into an artificial vesicle containing DMPG (Avanti Polar Lipids) as the excipient. Vesicles were prepared by combining 571 μL of 29 mM DMPG in a 1:1 mixture of MeOH and CHCl3 with 2000 μL of 1 mM A10070 in a 1:1 mixture of MeOH and CHCl3. The mixture was dried under nitrogen in multiple vials then resuspended in 20 mL total volume of 50 mM HEPES pH 8.0 buffer containing 50 mM NaCl and 0.2 mM EDTA. The sample was allowed to sit at room temperature for 15 min and then was sonicated 3×4 mins on ice with a Branson Sonicator using duty cycle 1. This preparation provides vesicles with a mole fraction of 0.11 for the FRET substrate.
The enzymatic assay was measured using 384-well white Optiplates. Each well contained 20 μL of assay buffer (50 mM HEPES pH 8.0, 50 mM NaCl and 1 mM CaCl2) and 0.25 μL of a DMSO solution containing a compound of interest. EL or HL (10 μL) was added and allowed to incubate with the compound for 30 min at 37° C. The source of EL was conditioned media obtained from HT-1080 cells that were transformed using RAGE technology (Athersys) to overexpress endogenous EL, and HL was partially purified from conditioned media obtained from COS cells overexpressing HL. The reaction was started by the addition of 10 μL of a 1:10 dilution of vesicles. The final total reaction volume was […]. The reaction rates were measured on a Gemini plate reader with an excitation wavelength of 490 nm and an emission wavelength of 530 nm. Readings were taken over a period of 60 minutes, and the slope between 300 and 900 secs of the readout was used to calculate the rate of the reaction.

The mark [1] stands for this setting: EL from conditioned media of HT-1080 cells, read-out: EL IC50.
Where [2] appears, read: HL partially purified from conditioned media of COS cells, read-out: HL IC50.

Regarding `CC(C)(C)OC(=O)NS(=O)(=O)NCc1nnc(C(c2nc3ccc(-c4cncnc4)cc3s2)S(=O)(=O)Cc2ccccc2)o1` (stereo not drawn) [Example 121, tert-butyl (((5-((benzylsulfonyl)(6-(5-pyrimidinyl)-1,3-benzothiazol-2-yl)methyl)-1,3,4-oxadiazol-2-yl)methyl)sulfamoyl)carbamate], the IC50 on Endothelial lipase (EL) (setting [1]) is 147 nM; at hepatic lipase (HL) (setting [2]), 6550 nM.
On to `CC1(NC(=O)c2cccc(-c3ccc4nc(C(c5nnc(CC6(C)NC(=O)NC6=O)o5)S(C)(=O)=O)sc4c3)c2)CC1` (stereo not drawn) [Example 224, 3-{2-[methanesulfonyl({5-[(4-methyl-2,5-dioxo-imidazolidin-4-yl)methyl]-1,3,4-oxadiazol-2-yl})methyl]-1,3-benzothiazol-6-yl}-N-(1-methylcyclopropyl) benzamide], for which the IC50 was found to be 11 nM at Endothelial lipase (EL) (setting [1]) and 76 nM on hepatic lipase (HL) (setting [2]).
On the same counts, the results for `C[C@]1(Cc2nnc(C(c3nc4ccc(-c5ccc(C(=O)N6CCOCC6)cc5)cc4s3)S(C)(=O)=O)o2)OC(=O)NC1=O` (stereo partly drawn) [Example 109, (5R)-5-methyl-5-((5-((methylsulfonyl)(6-(4-(4-morpholinylcarbonyl)phenyl)-1,3-benzothiazol-2-yl)methyl)-1,3,4-oxadiazol-2-yl)methyl)-1,3-oxazolidine-2,4-dione] are less than 10 nM and 764 nM.
As for `NS(=O)(=O)NCc1nnc(C(c2nc3ccc(-c4cccc(C(=O)N5CCC(=O)CC5)c4)cc3s2)S(=O)(=O)CCC(F)(F)F)o1` (stereo not drawn) [Example 194, N-((5-((6-(3-((4-oxo-1-piperidinyl)carbonyl)phenyl)-1,3-benzothiazol-2-yl)((3,3,3-trifluoropropyl)sulfonyl)methyl)-1,3,4-oxadiazol-2-yl)methyl) sulfamide], the half-inhibitory concentration (IC50) is less than 10 nM against Endothelial lipase (EL) (EL IC50, EL from conditioned media of HT-1080 cells) and 171 nM against hepatic lipase (HL) (HL IC50, HL partially purified from conditioned media of COS cells).
Take `CC1(O)CN(C(=O)c2cccc(-c3ccc4nc(C(c5nnc(CC6(C)NC(=O)NC6=O)o5)S(C)(=O)=O)sc4c3)c2)C1` (stereo not drawn) [Example 204, 5-{[5-({6-[3-(3-hydroxy-3-methylazetidine-1-carbonyl)phenyl]-1,3-benzothiazol-2-yl} (methanesulfonyl)methyl)-1,3,4-oxadiazol-2-yl]methyl}-5-methyl-imidazolidine-2,4-dione]: the half-maximal inhibitory concentration (IC50) on Endothelial lipase (EL) (setting [1]) was 17 nM; at hepatic lipase (HL) (setting [2]), 783 nM.
The corresponding values for `COc1cc(-c2ccc3nc(C(c4nnc(CNS(N)(=O)=O)o4)S(=O)(=O)Cc4ccccc4)sc3c2)ccn1` (stereo not drawn) [Example 137, N-((5-((benzylsulfonyl)(6-(2-methoxy-4-pyridinyl)-1,3-benzothiazol-2-yl)methyl)-1,3,4-oxadiazol-2-yl)methyl) sulfamide] are less than 10 nM and less than 10 nM.
On the same counts, the results for `NCCS(=O)(=O)C(c1nnc(CC2SC(=O)NC2=O)o1)c1nc2cc(F)c(-c3ccccc3)cc2s1` (stereo not drawn) [Example 186, 5-((5-(((2-aminoethyl)sulfonyl)(5-fluoro-6-phenyl-1,3-benzothiazol-2-yl)methyl)-1,3,4-oxadiazol-2-yl)methyl)-1,3-thiazolidine-2,4-dione] are less than 10 nM and 49 nM.
For the compound `CC(O)CCNC(=O)Cc1nnc(C(c2nc3ccc(-c4ccc(C(=O)N5CCOCC5)cc4)cc3s2)S(C)(=O)=O)o1` (stereo not drawn) [Example 176, N-(3-hydroxybutyl)-2-(5-((methylsulfonyl)(6-(4-(4-morpholinylcarbonyl)phenyl)-1,3-benzothiazol-2-yl)methyl)-1,3,4-oxadiazol-2-yl)acetamide], the 50% inhibitory concentration (IC50) at Endothelial lipase (EL) (setting [1]) is 10 nM; at hepatic lipase (HL) (setting [2]) it was 465 nM.
On to `COCCS(=O)(=O)C(c1nnc(CNS(=O)(=O)NC(=O)OC(C)(C)C)o1)c1nc2ccc(-c3cnn(C)c3)cc2s1` (stereo not drawn) [Example 115, tert-butyl (((5-(((2-methoxyethyl)sulfonyl)(6-(1-methyl-1H-pyrazol-4-yl)-1,3-benzothiazol-2-yl)methyl)-1,3,4-oxadiazol-2-yl)methyl)sulfamoyl)carbamate], for which the half-inhibitory concentration (IC50) is 117 nM at Endothelial lipase (EL) (setting [1]) and more than 25000 nM at hepatic lipase (HL) (setting [2]).
The corresponding values for `CS(=O)(=O)NCc1nnc(C(c2nc3ccc(-c4ccc(F)nc4)cc3s2)S(C)(=O)=O)o1` (stereo not drawn) [Example 172, N-((5-((6-(6-Fluoro-3-pyridinyl)-1,3-benzothiazol-2-yl)(methylsulfonyl)methyl)-1,3,4-oxadiazol-2-yl)methyl)methanesulfonamide] are 240 nM and 32 nM.
With `NS(=O)(=O)NCc1nnc(C(c2nc3ccc(-c4ccccc4)cc3s2)S(=O)(=O)CC(O)CO)o1` (mixture of isomers) [Example 171, N-((5-(((2,3-Dihydroxypropyl)sulfonyl)(6-phenyl-1,3-benzothiazol-2-yl)methyl)-1,3,4-oxadiazol-2-yl)methyl)sulfamide], the 50% inhibitory concentration (IC50) on Endothelial lipase (EL) (setting [1]) and on hepatic lipase (HL) (setting [2]) was less than 10 nM in each case.
In the case of `NS(=O)(=O)NCc1nnc(C(c2nc3ccc(-c4cccc(C(=O)NCCO)c4)cc3s2)S(=O)(=O)CCC(F)(F)F)o1` (stereo not drawn) [Example 196, N-(2-hydroxyethyl)-3-(2-((5-((sulfamoylamino)methyl)-1,3,4-oxadiazol-2-yl)((3,3,3-trifluoropropyl)sulfonyl)methyl)-1,3-benzothiazol-6-yl)benzamide], the concentration for half-maximal inhibition (IC50) on Endothelial lipase (EL) (setting [1]) is less than 10 nM; on hepatic lipase (HL) (setting [2]), 209 nM.
In the case of `CC(C)(C)OC(=O)c1cccc(-c2ccc3nc(C(c4nnc(CC5(C)NC(=O)NC5=O)o4)S(C)(=O)=O)sc3c2)c1` (stereo not drawn) [Example 203, tert-butyl 3-{2-[methanesulfonyl ({5-[(4-methyl-2,5-dioxoimidazolidin-4-yl)methyl]-1,3,4-oxadiazol-2-yl})methyl]-1,3-benzothiazol-6-yl}benzoate], the IC50 stood at 33 nM on Endothelial lipase (EL) (setting [1]) and 2 nM at hepatic lipase (HL) (setting [2]).
The corresponding values for `CS(=O)(=O)C(c1nnc(CNS(N)(=O)=O)o1)c1nc2ccc(-c3ccc(C(=O)N4CCOCC4)cc3)cc2s1` (stereo not drawn) [Example 130, N-((5-((methylsulfonyl)(6-(4-(4-morpholinylcarbonyl)phenyl)-1,3-benzothiazol-2-yl)methyl)-1,3,4-oxadiazol-2-yl)methyl)sulfamide] are less than 10 nM and 22 nM.
On the same counts, the results for `CS(=O)(=O)C(c1nnc(C[C@H]2NS(=O)(=O)NC2=O)o1)c1nc2ccc(-c3ccc(C(=O)N4CCOCC4)cc3)cc2s1` (stereo partly drawn) [Example 110, (4R)-4-((5-((methylsulfonyl) (6-(4-(4-morpholinylcarbonyl)phenyl)-1,3-benzothiazol-2-yl)methyl)-1,3,4-oxadiazol-2-yl)methyl)-1,2,5-thiadiazolidin-3-one 1,1-dioxide] are 19 nM and 3240 nM.

By IC50 is commonly meant the concentration that inhibits the measured activity by half.
